Source: ChEMBL document CHEMBL4270501, “Indole-fused azepines and analogues as anticancer lead molecules: Privileged findings and future directions” (Eur J Med Chem, 2017)

System: MCF7
Assay: Growth inhibition of human MCF7 cells by MTT assay
Type: functional, cell-based

IC50 [nM]	SMILES
600	COc1ccc2c3c([nH]c2c1)-c1ccccc1NC(=O)C3
1200	O=C1Cc2c([nH]c3ccccc23)-c2ccccc2N1 [PAULLONE]
